In ChEMBL document CHEMBL1130121, “Chromeno[3,4-c]pyridin-5-ones: selective human dopamine D4 receptor antagonists as potential antipsychotic agents” (J Med Chem, 1997):

Tests used:
[1] = target: T1, D(4) dopamine receptor (Homo sapiens, UniProt P21917); test: biochemical
T1 sequence (P21917 whole entry): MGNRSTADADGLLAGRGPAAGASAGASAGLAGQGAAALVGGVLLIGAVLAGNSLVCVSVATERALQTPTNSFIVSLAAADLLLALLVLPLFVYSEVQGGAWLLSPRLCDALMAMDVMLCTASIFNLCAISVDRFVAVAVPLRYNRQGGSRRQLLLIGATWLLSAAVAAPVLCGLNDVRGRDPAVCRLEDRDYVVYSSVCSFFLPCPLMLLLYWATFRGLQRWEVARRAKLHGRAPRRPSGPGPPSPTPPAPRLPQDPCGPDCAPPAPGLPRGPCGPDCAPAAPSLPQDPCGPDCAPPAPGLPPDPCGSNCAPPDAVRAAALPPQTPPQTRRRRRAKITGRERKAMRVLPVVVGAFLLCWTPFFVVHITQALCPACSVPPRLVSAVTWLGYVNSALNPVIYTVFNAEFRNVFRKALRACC
Description: Ability to displace [3H]spiperone from cloned human Dopamine receptor D4 expressed in CHO K-1 cells in vitro

[2] = target: D(3) dopamine receptor (Homo sapiens, UniProt P35462); test: biochemical
Chain of D(3) dopamine receptor (P35462 whole entry): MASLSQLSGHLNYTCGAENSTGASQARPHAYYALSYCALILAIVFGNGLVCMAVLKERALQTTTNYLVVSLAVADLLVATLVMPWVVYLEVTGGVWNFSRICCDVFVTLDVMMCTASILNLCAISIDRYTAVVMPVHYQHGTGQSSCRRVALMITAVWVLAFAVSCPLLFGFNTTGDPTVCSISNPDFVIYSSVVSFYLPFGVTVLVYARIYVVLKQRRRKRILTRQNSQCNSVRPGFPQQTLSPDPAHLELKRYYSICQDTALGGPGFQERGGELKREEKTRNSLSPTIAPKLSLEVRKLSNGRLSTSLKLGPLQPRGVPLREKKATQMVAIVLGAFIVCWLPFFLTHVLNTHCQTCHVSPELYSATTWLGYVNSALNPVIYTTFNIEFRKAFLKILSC
Description: Ability to displace [3H]spiperone from human cloned Dopamine receptor D3 expressed in CHO K-1 cells in vitro.

[3] = target: T2, D(4) dopamine receptor (Homo sapiens) (UniProt P21917); test: Inhibition of mitogenic [3H]thymidine uptake in CHO 10001 cells expressing Dopamine receptor D4; format: functional, cell-based
T2 sequence (whole entry): T1 sequence (P21917 whole entry)

[4] = target: T3, Adrenergic receptor alpha-2 (Rattus norvegicus, UniProt P22086+P19328+P22909); test: Binding affinity against rat brain Alpha-2 adrenergic receptor
T3 sequence (P22086 whole entry): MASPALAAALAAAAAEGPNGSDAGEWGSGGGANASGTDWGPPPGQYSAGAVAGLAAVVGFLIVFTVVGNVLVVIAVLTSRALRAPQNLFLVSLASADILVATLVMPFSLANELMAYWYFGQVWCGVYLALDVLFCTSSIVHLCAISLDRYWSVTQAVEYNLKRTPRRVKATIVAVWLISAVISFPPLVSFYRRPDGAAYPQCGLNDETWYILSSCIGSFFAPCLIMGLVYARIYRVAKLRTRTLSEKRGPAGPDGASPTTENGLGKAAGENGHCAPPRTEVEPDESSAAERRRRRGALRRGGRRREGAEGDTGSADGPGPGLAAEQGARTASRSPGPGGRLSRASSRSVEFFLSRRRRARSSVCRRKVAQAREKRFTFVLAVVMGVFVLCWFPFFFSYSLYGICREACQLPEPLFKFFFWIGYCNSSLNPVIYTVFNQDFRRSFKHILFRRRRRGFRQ
T3 sequence (P19328 whole entry): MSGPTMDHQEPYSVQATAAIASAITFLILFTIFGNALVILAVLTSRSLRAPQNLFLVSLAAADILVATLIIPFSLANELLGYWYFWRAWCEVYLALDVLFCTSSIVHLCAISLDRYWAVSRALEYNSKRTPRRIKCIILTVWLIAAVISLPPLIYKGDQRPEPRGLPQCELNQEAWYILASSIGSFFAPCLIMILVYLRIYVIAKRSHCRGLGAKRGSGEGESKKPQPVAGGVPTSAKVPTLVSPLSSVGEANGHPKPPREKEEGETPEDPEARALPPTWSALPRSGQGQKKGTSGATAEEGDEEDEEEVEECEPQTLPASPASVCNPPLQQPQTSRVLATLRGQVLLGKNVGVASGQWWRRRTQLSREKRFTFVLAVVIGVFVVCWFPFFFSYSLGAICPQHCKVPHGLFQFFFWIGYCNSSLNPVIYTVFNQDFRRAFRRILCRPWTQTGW
T3 sequence (P22909 whole entry): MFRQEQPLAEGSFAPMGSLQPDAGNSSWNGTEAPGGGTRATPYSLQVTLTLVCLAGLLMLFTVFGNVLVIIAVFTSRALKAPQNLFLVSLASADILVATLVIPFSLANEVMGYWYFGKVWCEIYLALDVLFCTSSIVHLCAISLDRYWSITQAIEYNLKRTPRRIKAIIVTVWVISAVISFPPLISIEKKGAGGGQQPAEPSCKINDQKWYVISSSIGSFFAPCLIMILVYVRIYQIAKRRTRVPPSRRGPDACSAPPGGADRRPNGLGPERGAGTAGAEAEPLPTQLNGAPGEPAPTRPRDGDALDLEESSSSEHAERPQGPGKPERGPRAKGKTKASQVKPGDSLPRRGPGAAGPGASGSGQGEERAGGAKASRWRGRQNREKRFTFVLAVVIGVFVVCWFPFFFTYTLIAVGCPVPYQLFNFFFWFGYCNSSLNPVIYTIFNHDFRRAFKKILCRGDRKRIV

[5] = target: 5-hydroxytryptamine receptor 2A (Rattus norvegicus, UniProt P14842); test: Binding affinity against rat brain 5-hydroxytryptamine 2A receptor
Chain of 5-hydroxytryptamine receptor 2A (P14842 whole entry): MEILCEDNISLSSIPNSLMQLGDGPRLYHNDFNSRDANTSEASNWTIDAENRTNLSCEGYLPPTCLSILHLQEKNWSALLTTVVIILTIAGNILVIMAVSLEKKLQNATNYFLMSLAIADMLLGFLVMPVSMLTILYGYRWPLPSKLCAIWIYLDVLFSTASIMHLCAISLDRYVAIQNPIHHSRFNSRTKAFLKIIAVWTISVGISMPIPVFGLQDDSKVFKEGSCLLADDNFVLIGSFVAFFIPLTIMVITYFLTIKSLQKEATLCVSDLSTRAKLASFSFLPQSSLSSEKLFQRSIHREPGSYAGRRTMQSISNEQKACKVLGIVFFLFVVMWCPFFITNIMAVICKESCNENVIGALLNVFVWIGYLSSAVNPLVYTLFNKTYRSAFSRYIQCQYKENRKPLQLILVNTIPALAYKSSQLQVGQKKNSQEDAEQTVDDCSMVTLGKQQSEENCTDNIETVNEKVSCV

[6] = target: T4, Adrenergic receptor alpha-1 (Rattus norvegicus, UniProt P15823+P23944+P43140); test: Binding affinity against rat brain Alpha-1 adrenergic receptor
T4 sequence (P15823 whole entry): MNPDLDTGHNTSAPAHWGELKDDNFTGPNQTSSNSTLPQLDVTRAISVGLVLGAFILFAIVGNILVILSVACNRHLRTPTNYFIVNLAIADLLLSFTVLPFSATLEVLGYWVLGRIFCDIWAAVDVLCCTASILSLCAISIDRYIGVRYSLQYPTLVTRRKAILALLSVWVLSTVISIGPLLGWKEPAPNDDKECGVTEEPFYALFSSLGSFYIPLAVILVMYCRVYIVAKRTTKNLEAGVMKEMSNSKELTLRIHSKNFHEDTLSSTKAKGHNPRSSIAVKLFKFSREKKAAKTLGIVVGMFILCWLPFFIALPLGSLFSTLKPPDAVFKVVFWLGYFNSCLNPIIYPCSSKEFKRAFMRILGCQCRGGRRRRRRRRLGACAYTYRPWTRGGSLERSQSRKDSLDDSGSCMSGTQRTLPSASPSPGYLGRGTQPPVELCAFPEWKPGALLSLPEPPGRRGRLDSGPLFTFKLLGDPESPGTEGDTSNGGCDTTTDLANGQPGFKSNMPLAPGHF
T4 sequence (P23944 whole entry): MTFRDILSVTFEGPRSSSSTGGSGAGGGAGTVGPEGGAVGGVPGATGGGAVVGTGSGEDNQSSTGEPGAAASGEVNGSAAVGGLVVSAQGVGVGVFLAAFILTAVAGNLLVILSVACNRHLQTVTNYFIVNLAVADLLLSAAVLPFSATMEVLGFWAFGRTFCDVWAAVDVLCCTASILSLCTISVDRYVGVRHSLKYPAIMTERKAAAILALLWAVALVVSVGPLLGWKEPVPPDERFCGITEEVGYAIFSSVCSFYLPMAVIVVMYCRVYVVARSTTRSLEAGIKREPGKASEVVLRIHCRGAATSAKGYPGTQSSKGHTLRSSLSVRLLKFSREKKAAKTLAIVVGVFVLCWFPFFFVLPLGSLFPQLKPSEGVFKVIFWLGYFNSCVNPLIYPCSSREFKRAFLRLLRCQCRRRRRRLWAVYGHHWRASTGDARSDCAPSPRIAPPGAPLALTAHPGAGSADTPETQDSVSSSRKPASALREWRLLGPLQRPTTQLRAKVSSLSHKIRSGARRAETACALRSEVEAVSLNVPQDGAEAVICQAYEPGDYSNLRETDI
T4 sequence (P43140 whole entry): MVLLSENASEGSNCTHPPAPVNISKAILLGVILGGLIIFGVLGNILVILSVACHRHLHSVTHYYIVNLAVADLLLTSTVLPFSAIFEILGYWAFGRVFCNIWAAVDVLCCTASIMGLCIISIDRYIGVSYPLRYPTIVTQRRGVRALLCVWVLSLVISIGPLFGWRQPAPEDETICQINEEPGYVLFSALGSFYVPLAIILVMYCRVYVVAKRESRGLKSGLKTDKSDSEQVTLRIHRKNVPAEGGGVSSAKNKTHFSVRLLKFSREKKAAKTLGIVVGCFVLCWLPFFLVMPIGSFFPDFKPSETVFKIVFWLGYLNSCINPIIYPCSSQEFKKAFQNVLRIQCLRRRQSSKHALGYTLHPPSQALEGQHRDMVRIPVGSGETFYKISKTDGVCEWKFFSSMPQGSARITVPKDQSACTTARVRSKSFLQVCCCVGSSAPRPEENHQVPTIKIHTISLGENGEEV

[7] = target: T5, 5-hydroxytryptamine receptor 1A (Rattus norvegicus, UniProt P19327); test: Binding affinity against rat brain 5-hydroxytryptamine 1A receptor
T5 sequence (P19327 whole entry): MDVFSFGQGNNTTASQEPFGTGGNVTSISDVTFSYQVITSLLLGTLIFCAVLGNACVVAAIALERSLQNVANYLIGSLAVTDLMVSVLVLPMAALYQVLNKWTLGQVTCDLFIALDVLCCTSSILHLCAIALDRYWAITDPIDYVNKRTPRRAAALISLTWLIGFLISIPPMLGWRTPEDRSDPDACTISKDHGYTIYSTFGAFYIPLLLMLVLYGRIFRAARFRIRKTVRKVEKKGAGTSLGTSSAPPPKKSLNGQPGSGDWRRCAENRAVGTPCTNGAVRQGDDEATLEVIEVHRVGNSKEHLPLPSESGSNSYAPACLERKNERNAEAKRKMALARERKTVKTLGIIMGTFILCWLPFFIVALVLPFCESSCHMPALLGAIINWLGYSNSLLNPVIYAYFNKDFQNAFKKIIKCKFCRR

Ki [1] | Ki [2] | Intrinsic activity [3] | SMILES | also measured
0.0043 µM | 0.548 µM | 35.2% | COc1ccc2c3c(c(=O)oc2c1)CN(Cc1ccc(F)cc1)CC3 | –
0.011 µM | – | – | Cc1ccc2c3c(c(=O)oc2c1)CN(Cc1ccc(Cl)cc1)CC3 | –
– | – | 0% | COc1ccc2c3c(c(=O)oc2c1)CN(Cc1ccc(C(F)(F)F)cc1)CC3 | –
0.0087 µM | 2.78 µM | 26.8% | COc1ccc2c3c(c(=O)oc2c1)CN(Cc1ccc(Cl)cc1)CC3 | –
– | – | 10% | COc1ccc2c3c(c(=O)oc2c1)CN(Cc1ccc(C)cc1)CC3 | –
0.0079 µM | – | – | COc1ccc2c3c(c(=O)oc2c1)CN(CCc1ccccc1)CC3 | –
– | – | 23.2% | COc1ccc2c3c(c(=O)oc2c1)CN(Cc1ccccc1)CC3 | –
0.016 µM | 1.3 µM | – | COc1ccc2c3c(c(=O)oc2c1OC)CN(Cc1ccccc1)CC3 | –
0.017 µM | – | 30.7% | COc1ccc2c3c(c(=O)oc2c1)CN(Cc1cccc(Cl)c1)CC3 | –
> 3.3 µM | – | – | COc1ccc2c3c(c(=O)oc2c1)CCN(Cc1ccccc1)C3 | –
> 3.3 µM | – | – | COc1ccc2c3c(c(=O)oc2c1)CN(c1ccccc1)CC3 | –
– | > 3 µM | 21.2% | COc1cc2oc(=O)c3c(c2cc1OC)CCN(Cc1ccc(Cl)cc1)C3 | –
0.0075 µM | 2.21 µM | 0% | Cc1ccc2c3c(c(=O)oc2c1)CN(Cc1ccc(F)cc1)CC3 | –
0.0024 µM | 0.317 µM | 23.2% | O=c1oc2cc(O)ccc2c2c1CN(Cc1ccc(Cl)cc1)CC2 | –
0.42 µM | – | – | COc1ccc2c3c(c(=O)oc2c1)CN(C(=O)c1ccccc1)CC3 | –
– | > 3 µM | 25.2% | COc1ccc2c3c(c(=O)oc2c1)CN(Cc1ccc([N+](=O)[O-])cc1)CC3 | –
– | – | 12.4% | Cc1ccc2c3c(c(=O)oc2c1)CN(Cc1ccccc1)CC3 | Ki [4]: > 0.7 µM; Ki [5]: > 0.7 µM; Ki [6]: > 0.7 µM; Ki [7]: > 0.7 µM

SMILES | Ki [1] | Ki [2] | Intrinsic activity [3] | also measured
Cc1cc(O)c2c3c(c(=O)oc2c1)CN(Cc1ccccc1)CC3 | 0.145 µM | – | – | –
